Experimental data taken from patent US20230287027A1, “ADJUVANT WITH TLR4 AGONIST ACTIVITY” (Sumitomo Pharma Co., Ltd, priority 2020, published 2023).

Key:
human TLR4 = target: T1, human TLR4 (Homo sapiens, UniProt O00206+Q9Y6Y9); experiment: Human TLR4 reporter gene assay (Test 1); type: cell-based; conditions: HEK-Blue hTLR4 cell line, SEAP reporter, 37° C. 16-20 hours, 0.1% DMSO; concentration giving half of maximal SEAP level induced with LPS
T1 construct: host or cells: HEK-Blue hTLR4 cell line
T1 sequence (O00206 24-839): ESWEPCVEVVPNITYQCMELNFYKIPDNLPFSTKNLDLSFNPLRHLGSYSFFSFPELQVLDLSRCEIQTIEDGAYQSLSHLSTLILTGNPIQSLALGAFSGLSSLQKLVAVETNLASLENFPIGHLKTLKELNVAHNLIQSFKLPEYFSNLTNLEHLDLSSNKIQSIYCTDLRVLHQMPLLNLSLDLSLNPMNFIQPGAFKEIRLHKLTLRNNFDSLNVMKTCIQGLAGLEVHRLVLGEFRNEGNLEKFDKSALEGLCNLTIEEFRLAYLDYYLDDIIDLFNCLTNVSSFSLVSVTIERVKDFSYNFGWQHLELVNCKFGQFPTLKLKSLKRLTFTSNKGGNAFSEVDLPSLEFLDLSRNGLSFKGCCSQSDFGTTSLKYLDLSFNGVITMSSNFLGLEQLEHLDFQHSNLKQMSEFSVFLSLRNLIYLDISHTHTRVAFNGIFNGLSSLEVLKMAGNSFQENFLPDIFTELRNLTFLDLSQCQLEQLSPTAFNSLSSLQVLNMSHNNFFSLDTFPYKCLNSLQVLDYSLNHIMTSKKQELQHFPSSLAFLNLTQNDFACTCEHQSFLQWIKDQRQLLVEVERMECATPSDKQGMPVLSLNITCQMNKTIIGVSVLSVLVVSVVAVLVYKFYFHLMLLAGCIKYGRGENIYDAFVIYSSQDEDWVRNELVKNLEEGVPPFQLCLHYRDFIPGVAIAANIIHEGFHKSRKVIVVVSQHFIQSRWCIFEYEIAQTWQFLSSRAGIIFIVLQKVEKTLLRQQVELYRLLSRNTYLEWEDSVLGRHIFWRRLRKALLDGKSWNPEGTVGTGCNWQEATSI
T1 sequence (Q9Y6Y9 17-160 limits assumed): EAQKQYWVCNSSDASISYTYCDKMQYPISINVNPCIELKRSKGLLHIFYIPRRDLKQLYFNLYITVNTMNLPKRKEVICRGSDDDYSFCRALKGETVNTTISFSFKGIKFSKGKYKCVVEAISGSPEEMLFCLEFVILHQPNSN
Source text: Human TLR4 Reporter Gene Assay
HEK-Blue™ hTLR4 cell line (Invivogen Corporation) is a stably co-transfected cell line which expresses human TLR4, MD2, CD14, and secretory alkaline phosphatase (SEAP) reporter gene under the transcriptional regulation of an NF-κB response element. The TLR4 expression of the cell line has been already tested by RT-PCR, flow cytometry. Transfectants with stable expression were selected using the antibiotic HEK-Blue™ Selection. TLR signaling leads to the translocation of NF-κB and the activation of the promoter results in expression of the SEAP gene. TLR4-specific activation was assessed by determining the level of SEAP produced following incubation of the cells at 37° C. for 16-20 hours with each compound prepared in Examples and Reference examples in the presence of 0.1% (v/v) DMSO. The human TLR4 activity for the present compound was assessed by human TLR4 reporter gene assay, and the concentration of the compound concentration which produced half of the maximal level of SEAP induced with lipopolysaccharide (LPS) was determined as EC50.

OVA-specific IgG2c = experiment: Test 3: OVA-specific IgG2c in serum of immunized mice by ELISA; type: in vivo, C57BL/6 male mouse; conditions: mouse, intramuscular with OVA, liposome formulation, 10 or 100 μg/mouse, two immunizations, serum one week after the additional immunization; compared with the negative control group
Experimental: FIG. 1 is a graph showing the results of measuring OVA-specific IgG2c in immunized mouse serum in mice to which the formulation prepared in Example 6 or 7 was intramuscularly administered, by ELISA in Test 3. The vertical axis indicates the antibody titer of OVA-specific IgG2c in serum. The horizontal axis indicates the administered sample (administered dose in parentheses). 1: negative control group (phosphate buffered saline), 2: Example 6 administration group (the compound of Example 1, 10 μg/mouse), 3: Example 6 administration group (the compound of Example 1, 100 μg/mouse), 4: Example 7 administration group (the compound of Example 2, 10 μg/mouse), 5: Example 7 administration group (the compound of Example 2, 100 μg/mouse).
FIG. 2 is a graph showing the results of measuring OVA-specific IgG2c in immunized mouse serum in mice to which the formulation prepared in Reference Example 16 or Example 6 was intramuscularly administered, by ELISA in Test 3. The vertical axis indicates the antibody titer of OVA-specific IgG2c in serum. The horizontal axis indicates the administered sample (administered dose in parentheses). […]
An equal mixture of ovalbumin (OVA) (2 mg/mL) as an antigen and the formulation prepared in Example 6, Example 7, or Reference example 16 (containing 0.2 or 2 mg/mL the compound of Example 1, Example 2, or Reference example 9) was intramuscularly administered to the gastrocnemius of a 7-week-old C57BL/6 male mouse (100 μL/mouse), which was defined as the first immunization. […] The OVA-specific IgG2c value in each serum was measured by the following ELISA method. To 96-well plate, OVA solution (SIGMA) was added, 1% Skim Milk (Wako) was added for blocking, the serum sample which was diluted with phosphate buffer solution was added, caprine antimouse IgG2c (Southern Bio) as the secondary antibody was added, SureBlue™ TMB Micrewell Peroxidase Substrate (KPL) was added, and then the product of the enzymatic reaction was quantified with a microplate reader.

SMILES | EC50 (human TLR4) | OVA-specific IgG2c induction (OVA-specific IgG2c)
CCCCCCCCCCC[C@H](CC(=O)NC1C(OC[C@H](NC(=O)C[C@@H](CCCCCCCCCCC)OC(=O)CCCCCCCCC)C(=O)O)OC(CO)C(O)C1OC(=O)C[C@@H](CCCCCCCCCCC)OC(=O)CCCCCCCCc1ccccc1)OC(=O)CCCCCCCCC (stereo partly drawn) [Example 2, (2S)-2-{[(3R)-3-(decanoyloxy)tetradecanoyl]amino}-3-{[3-{[(3R)-3-(decanoyloxy)tetradecanoyl]amino}-5-hydroxy-6-(hydroxymethyl)-4-({(3R)-3-[(9-phenylnonanoyl)oxy]tetradecanoyl}oxy)oxan-2-yl]oxy}propanoic acid] | 15 nM | significantly strong
CCCCCCCCCCC[C@H](CC(=O)NC1C(OC[C@@H](NC(=O)C[C@@H](CCCCCCCCCCC)OC(=O)CCCCCCCCC)C(=O)O)OC(CO)C(O)C1OC(=O)C[C@@H](CCCCCCCCCCC)OC(=O)CCCCCCCCc1ccccc1)OC(=O)CCCCCCCCC (stereo partly drawn) [Example 1, (2R)-2-{[(3R)-3-(Decanoyloxy)tetradecanoyl]amino}-3-{[3-{[(3R)-3-(decanoyloxy)tetradecanoyl]amino}-5-hydroxy-6-(hydroxymethyl)-4-({(3R)-3-[(9-phenylnonanoyl)oxy]tetradecanoyl}oxy)oxan-2-yl]oxy}propanoic acid] | 43.5 nM | significantly strong
CCCCCCCCCCC[C@H](CC(=O)NC1C(OC[C@@H](NC(=O)C[C@@H](CCCCCCCCCCC)OC(=O)CCCCCCCCC)C(=O)O)OC(CO)C(OP(=O)(O)O)C1OC(=O)C[C@@H](CCCCCCCCCCC)OC(=O)CCCCCCCCc1ccccc1)OC(=O)CCCCCCCCC (stereo partly drawn) [Reference example 9, (2R)-2-{[(3R)-3-(Decanoyloxy)tetradecanoyl]amino}-3-{[3-{[(3R)-3-(decanoyloxy)tetradecanoyl]amino}-6-(hydroxymethyl)-4-({(3R)-3-[(9-phenylnonanoyl)oxy]tetradecanoyl}oxy)-5-(phosphonooxy)oxan-2-yl]oxy}propanoic acid, reference compound] | 43.9 nM | significantly strong
